Values of other authors, collected in patent US20080293820A1, “METHODS FOR IMPROVING PHYSICAL FUNCTION IN FIBROMYALGIA” (Cypress Bioscience, Inc., priority 2007, published 2008).

Tested on: patients with FMS
Conditions: open-label; cited from earlier work

COc1ccc(C(CN(C)C)C2(O)CCCCC2)cc1 (centres unmarked) [venlafaxine]
completing patients with a positive response (50% or greater improvement in two different measurements of overall pain): Six of 11
insomnia requiring adjunctive medical therapy, completing patients: 3 of 11
